Data taken from patent US10934304B2, “Spirocyclic compounds” (Recurium IP Holdings, LLC, priority 2016, dated 2021).

Columns and labels:
A375 (melanoma) cells = experiment: Proliferation Assay (CellTiter-Glo); type: cell-based; conditions: 3 days incubation, CellTiter-Glo luminescence
Protocol: A375 (melanoma), Colo-205 (colon cancer), Miapaca (pancreatic), HPAFII (pancreatic), sNF02.0 (neurofibromatosis type 1), sNF96.2 (neurofibromatosis type 1) and 8505 (Thyroid) cells were grown and maintained in RPMI-1640 medium containing 100 U/mL penicillin-streptomycin and 10% fetal bovine serum. Cells were in growth medium in 96-well opaque-walled clear bottom plates and incubated in the CO2 incubator overnight before treatment. Cells were treated with compounds diluted in DMSO and a 10 point 3-fold serial dilutions were done. Plates were placed in 37° C., 5% CO2 to incubate for 3 days. Before they were developed by adding 100 μL of CellTiter-Glo reagent (Promega) to the assay plate, plates were shaken briefly for 2 mins and allowed to incubate at room temperature for 10 mins. The bottom of the plates was pasted with white back seal and luminescence was recorded with Flexstation3 with setting of luminescence, integration time 500 ms.
Compounds of Formula (I), (II) and (III) are active in this assay as noted in Table 2.

ERK2 = ERK2 (Homo sapiens (Human), UniProt P28482); experiment: Active ERK1 and ERK2 Kinase Assay (Mobility Shift Assay); type: biochemical; conditions: activated ERK2, Mobility Shift Assay
Protocol: Activated ERK1 and ERK2 activity was determined in a Mobility Shift Assay (MSA) format as follows: Compound and kinase solution were prepared with assay buffer (20 mM HEPES, 0.01% Triton X-100, 2 mM DTT, pH7.5) and mixed and incubated in for 30 mins at rt. ERK1 & ERK2 were then activated by the addition of F1-Substrate, ATP and metal solution and incubated for 1 h at rt. After 1 h, the reaction was terminated by the addition of […] of Termination Buffer (QuickScout Screening Assist MSA; Carna Biosciences) to the well. The reaction mixture was applied to LabChip™ system (PerkinElmer), and the product and substrate peptide peaks were separated, analyzed and quantitated. The kinase reaction is evaluated by the product ratio calculated from peak heights of product (P) and substrate(S) peptides (P/(P+S)).

Sequence of ERK2 (P28482 whole entry): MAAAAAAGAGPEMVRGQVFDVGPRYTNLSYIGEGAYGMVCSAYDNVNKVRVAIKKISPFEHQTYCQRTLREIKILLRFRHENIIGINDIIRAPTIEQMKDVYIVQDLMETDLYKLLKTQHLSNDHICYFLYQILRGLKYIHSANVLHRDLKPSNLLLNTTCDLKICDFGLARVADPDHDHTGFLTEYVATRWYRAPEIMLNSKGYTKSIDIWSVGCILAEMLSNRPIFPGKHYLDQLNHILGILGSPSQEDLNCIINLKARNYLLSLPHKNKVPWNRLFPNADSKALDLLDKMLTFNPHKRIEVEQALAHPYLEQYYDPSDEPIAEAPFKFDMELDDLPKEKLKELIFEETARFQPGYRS

| Structure (SMILES) | IC50 (A375 (melanoma) cells; Homo sapiens, A-375, 72 h) [nM] | IC50 (ERK2) [nM] | IC50 (A375 (melanoma) cells) [nM] |
| --- | --- | --- | --- |
| Cn1cnc(-c2ccc(C3=CCN(C(=O)CN4CC[C@]5(CCN(c6ccc7[nH]nc(-c8ccc(C#N)cn8)c7n6)C5=O)C4)CC3)cc2)n1 [Example 51] | – | ≤ 50 | ≤ 500 |
| Cn1nc(-c2ccc(C3=CCN(C(=O)CN4CC[C@]5(CCN(c6ccc7[nH]nc(-c8ccc(F)cc8)c7c6)C5=O)C4)CC3)cc2)oc1=O [Example 18] | – | ≤ 50 | ≤ 500 |
| Cn1cnc(-c2cnc(C3=CCN(C(=O)CN4CC[C@]5(CCN(c6ccc7[nH]nc(-c8ccc(F)cc8)c7n6)C5=O)C4)CC3)s2)n1 [Example 47] | – | ≤ 50 | ≤ 500 |
| Cn1cnc(-c2ccc(C3=CCN(C(=O)CN4CC[C@]5(CCN(c6ccc7[nH]nc(N8CCC9(CC8)COC9)c7n6)C5=O)C4)CC3)cc2)n1 [Example 42, (S)-2-(3-(2-oxa-7-azaspiro[3.5]nonan-7-yl)-1H-pyrazolo[4,3-b]pyridin-5-yl)-7-(2-(4-(4-(1-methyl-1H-1,2,4-triazol-3-yl)phenyl)-3,6-dihydropyridin-1(2H)-yl)-2-oxoethyl)-2,7-diazaspiro[4.4]nonan-1-one] | ≥ 1000 | ≥ 250 | – |
| CNC(=O)c1cc(-c2n[nH]c3ccc(N4CC[C@]5(CCN(CC(=O)N6CC=C(c7ccc(-c8nn(C)c(=O)o8)cc7)CC6)C5)C4=O)cc23)ccc1F [Example 16] | – | ≤ 50 | ≤ 500 |
| COc1cccc(-c2n[nH]c3ccc(N4CC[C@]5(CCN(CC(=O)N6CC=C(c7ccc(-c8ncn(C)n8)cc7)CC6)C5)C4=O)cc23)n1 [Example 61] | – | ≤ 50 | ≤ 500 |
| Cn1cnc(-c2ccc(C3=CCN(C(=O)CN4CC[C@]5(CCN(c6ccc7[nH]nc(-c8ccc(F)cn8)c7c6)C5=O)C4)CC3)cc2)n1 [Example 28, (S)-2-(3-(5-Fluoropyridin-2-yl)-1H-indazol-5-yl)-7-(2-(4-(4-(1-methyl-1H-1,2,4-triazol-3-yl)phenyl)-5,6-dihydropyridin-1(2H)-yl)-2-oxoethyl)-2,7-diazaspiro[4.4]nonan-1-one] | ≤ 500 | ≤ 50 | – |
| Cc1ccc(-c2n[nH]c3ccc(N4CC[C@]5(CCN(CC(=O)N6CC=C(c7ncc(-c8ncn(C)n8)s7)CC6)C5)C4=O)nc23)cn1 [Example 43] | – | ≤ 50 | ≤ 500 |
| Cc1nc2cc(-c3n[nH]c4ccc(N5CC[C@]6(CCN(CC(=O)N7CC=C(c8ccc(-c9ncn(C)n9)cc8)CC7)C6)C5=O)nc34)ccc2o1 [Example 24] | – | ≤ 50 | ≤ 500 |
| Cn1nc(-c2ccc(C3=CCN(C(=O)CN4CC[C@]5(CCN(c6ccc7[nH]nc(C8=CCOCC8)c7c6)C5=O)C4)CC3)cc2)oc1=O [Example 32] | ≤ 500 | ≤ 50 | – |
| Cn1cnc(-c2ccc(C3=CCN(C(=O)CN4CC[C@]5(CCN(c6ccc7[nH]nc(N8CCC(F)(F)CC8)c7c6)C5=O)C4)CC3)cc2)n1 [Example 3, (S)-2-(3-(4,4-difluoropiperidin-1-yl)-1H-indazol-5-yl)-7-(2-(4-(4-(1-methyl-1H-1,2,4-triazol-3-yl)phenyl)-5,6-dihydropyridin-1 (2H)-yl)-2-oxoethyl)-2,7-diazaspiro[4.4]nonan-1-one] | 500 to 1000 | ≤ 50 | – |
| Cc1cc(-c2n[nH]c3ccc(N4CC[C@]5(CCN(CC(=O)N6CC=C(c7ccc(-c8ncn(C)n8)cc7)CC6)C5)C4=O)nc23)ccn1 [Example 38] | ≤ 500 | ≤ 50 | – |
| Cc1ccc(-c2n[nH]c3ccc(N4CC[C@]5(CCN(CC(=O)N6CCC(c7ncc(-c8ncn(C)n8)s7)CC6)C5)C4=O)nc23)cn1 [Example 80] | ≤ 500 | ≤ 50 | – |
| COc1ccc(-c2n[nH]c3ccc(N4CC[C@]5(CCN(CC(=O)N6CC=C(c7ccc(-c8ncn(C)n8)cc7)CC6)C5)C4=O)cc23)nc1 [Example 60] | – | ≤ 50 | ≤ 500 |
| Cc1cc(-c2n[nH]c3ccc(N4CC[C@]5(CCN(CC(=O)N6CCN(c7ccc(-c8ncn(C)n8)cn7)CC6)C5)C4=O)nc23)ccn1 [Example 44] | – | ≤ 50 | ≤ 500 |
| CN1CCC(c2n[nH]c3ccc(N4CC[C@]5(CCN(CC(=O)N6CC=C(c7ccc(-c8ncn(C)n8)cc7)CC6)C5)C4=O)cc23)CC1 [Example 4, (S)-7-(2-(4-(4-(1-methyl-1H-1,2,4-triazol-3-yl)phenyl)-3,6-dihydropyridin-1(2H)-yl)-2-oxoethyl)-2-(3-(1-methylpiperidin-4-yl)-1H-indazol-5-yl)-2,7-diazaspiro[4.4]nonan-1-one] | ≥ 1000 | ≥ 250 | – |
| Cc1ccc(-c2n[nH]c3ccc(N4CC[C@]5(CCN(CC(=O)N6CC=C(c7ccc(-c8ncn(C)n8)cc7)CC6)C5)C4=O)nc23)cn1 [Example 20] | – | ≤ 50 | ≤ 500 |
| Cn1cnc(-c2ccc(C3=CCN(C(=O)CN4CC[C@]5(CCN(c6ccc7[nH]nc(-c8cnn(C)n8)c7n6)C5=O)C4)CC3)cc2)n1 [Example 59] | – | ≤ 50 | 500 to 1000 |
| Cn1cnc(-c2ccc(C3=CCN(C(=O)CN4CC[C@]5(CCN(c6ccc7[nH]nc(-c8ccc(F)cn8)c7n6)C5=O)C4)CC3)cc2)n1 [Example 50] | – | ≤ 50 | 500 to 1000 |
| CC(C)n1cc(-c2n[nH]c3ccc(N4CC[C@]5(CCN(CC(=O)N6CC=C(c7ccc(-c8nn(C)c(=O)o8)cc7)CC6)C5)C4=O)cc23)cn1 [Example 31] | ≤ 500 | ≤ 50 | – |

Now from value to compound:

| IC50 (A375 (melanoma) cells; Homo sapiens, A-375, 72 h) [nM] | IC50 (ERK2) [nM] | IC50 (A375 (melanoma) cells) [nM] | Structure (SMILES) |
| --- | --- | --- | --- |
| ≤ 500 | ≤ 50 | – | Cn1cc(-c2n[nH]c3ccc(N4CC[C@]5(CCN(CC(=O)N6CC=C(c7ccc(-c8ncn(C)n8)cc7)CC6)C5)C4=O)nc23)cn1 [Example 37] |
| – | ≤ 50 | ≤ 500 | CC(C)Oc1ccc(-c2n[nH]c3ccc(N4CC[C@]5(CCN(CC(=O)N6CCN(c7ccc(-c8ncn(C)n8)cn7)CC6)C5)C4=O)nc23)cn1 [Example 84] |
| ≤ 500 | ≤ 50 | – | Cc1ncc(-c2n[nH]c3ccc(N4CC[C@]5(CCN(CC(=O)N6CC=C(c7ccc(-c8nn(C)c(=O)o8)cc7)CC6)C5)C4=O)cc23)s1 [Example 33] |
| – | ≤ 50 | ≤ 500 | COc1ccc(-c2n[nH]c3ccc(N4CC[C@]5(CCN(CC(=O)N6CC=C(c7ccc(-c8ncn(C)n8)s7)CC6)C5)C4=O)nc23)cn1 [Example 66] |
| – | ≤ 50 | 500 to 1000 | CC(C)c1nc2cc(-c3n[nH]c4ccc(N5CC[C@]6(CCN(CC(=O)N7CC=C(c8ccc(-c9ncn(C)n9)cc8)CC7)C6)C5=O)nc34)ccc2o1 [Example 91] |
| – | ≤ 50 | ≤ 500 | Cn1cnc(-c2ccc(C3=CCN(C(=O)CN4CC[C@]5(CCN(c6ccc7[nH]nc(-c8ccc(OC9CC9)nc8)c7n6)C5=O)C4)CC3)cc2)n1 [Example 67] |
| ≤ 500 | ≤ 50 | – | CC(C)n1cc(-c2n[nH]c3ccc(N4CC[C@]5(CCN(CC(=O)N6CC=C(c7ccc(-c8ncn(C)n8)cc7)CC6)C5)C4=O)nc23)cn1 [Example 40] |
| ≤ 500 | ≤ 50 | – | Cn1cnc(-c2ccc(C3=CCN(C(=O)CN4CC[C@]5(CCN(c6ccc7[nH]nc(C8=CCOCC8)c7n6)C5=O)C4)CC3)cc2)n1 [Example 26] |
| – | ≤ 50 | ≤ 500 | COc1ccc(-c2n[nH]c3ccc(N4CC[C@]5(CCN(CC(=O)N6CC=C(c7ccc(-c8ncn(C)n8)cc7)CC6)C5)C4=O)nc23)nc1OC [Example 93] |
| ≤ 500 | ≤ 50 | – | CNC(=O)c1ccc(-c2n[nH]c3ccc(N4CC[C@]5(CCN(CC(=O)N6CC=C(c7ccc(-c8ncn(C)n8)cc7)CC6)C5)C4=O)cc23)cn1 [Example 6] |
| ≤ 500 | ≤ 50 | – | Cn1cnc(-c2ccc(C3=CCN(C(=O)CN4CC[C@]5(CCN(c6ccc7[nH]nc(C8CCOCC8)c7n6)C5=O)C4)CC3)cc2)n1 [Example 22, (S)-7-(2-(4-(4-(1-Methyl-1H-1,2,4-triazol-3-yl)phenyl)-5,6-dihydropyridin-1(2H)-yl)-2-oxoethyl)-2-(3-(tetrahydro-2H-pyran-4-yl)-1H-pyrazolo[4,3-b]pyridin-5-yl)-2,7-diazaspiro[4.4]nonan-1-one] |
| ≤ 500 | ≤ 50 | – | Cn1cnc(-c2ccc(C3=CCN(C(=O)CN4CC[C@]5(CCN(c6ccc7[nH]nc(-c8cnn(C)n8)c7c6)C5=O)C4)CC3)cc2)n1 [Example 58, (S)-7-(2-(4-(4-(1-methyl-1H-1,2,4-triazol-3-yl)phenyl)-3,6-dihydropyridin-1(2H)-yl)-2-oxoethyl)-2-(3-(2-methyl-2H-1,2,3-triazol-4-yl)-1H-indazol-5-yl)-2,7-diazaspiro[4.4]nonan-1-one] |
| ≥ 1000 | ≤ 50 | – | Cn1cnc(-c2ccc(C3=CCN(C(=O)CN4CC[C@]5(CCN(c6ccc7[nH]nc(N8CCCC8)c7c6)C5=O)C4)CC3)cc2)n1 [Example 11, (S)-7-(2-(4-(4-(1-Methyl-1H-1,2,4-triazol-3-yl)phenyl)-5,6-dihydropyridin-1(2H)-yl)-2-oxoethyl)-2-(3-(pyrrolidin-1-yl)-1H-indazol-5-yl)-2,7-diazaspiro[4.4]nonan-1-one] |
